What was measured:
[1] = tested on: CD8+ T cells; assay: Exogenous autologous healthy donor restimulation assay, TNFα and IFNγ production by CD8+ T cells; type: cell-based, human; set-up: Frequency (TNFα+ IFNγ+ CD8 T cells): unit not given here; settings: for Fold change (CD8+) vs. DMSO: maximum CD8+ T-cell response (TNFα and IFNγ); for Fold change (CD8+) vs. DMSO / Frequency (TNFα+ IFNγ+ CD8 T cells): donor independent, peptide pool 10 μg/mL, healthy donors; for Frequency (TNFα+ IFNγ+ CD8 T cells): maximum CD8+ T-cell response; for Immunogenic (yes/no): positive if CD8+ and/or CD4+ double positive TNFα/IFNγ frequency >=3-fold over DMSO and at least 0.01%
Description: (§1) Immunogenicity responses were measured by estimating TNFα IFNγ double positive cells in the CD4+ and/or CD8+ T-cell populations. A response is considered positive if TNFα IFNγ double positive fraction was greater than or equal to three-fold over unstimulated cells (DMSO negative control) with a minimum frequency >=0.01%. […]
(§2) Overlapping 15-mer peptides were designed to span each indicated neoantigen. Their ability to activate T cells was assessed using known methods, such as the assay defnied as exogenous autologous normal donor restimulation assay. The peptides were used as pools using TNFα and IFNγ production by CD8^+ and CD4^+ T cells as a readout. Maximum frequency of CD8^+TNFα^+IFNγ^+ and CD4^+TNFα^+IFNγ^+ T cells and maximum fold change over background for each pool of peptides were analyzed, which were calculated as the highest frequency of CD8^+ TNFα^+IFNγ^+ and CD4^+ TNFα^+IFNγ^+ T cells and resulting fold change across the normal donors evaluated for the peptide.
(§3) CD1c+Dendritic Cells (CD1c+DC) isolated from human healthy PBMCs were thawed using media (IMDM (Gibco) supplemented with glutamine, HEPES, 5% human serum (Sigma), and 1× Pen-Strep). DC cells were resuspended in media supplemented with IL-4 (Peprotech, 20 ng/mL) and GM-CSF (Gibco, 20 ng/mL), plated in 6 well microplates, and rested overnight at 37° C. and 5% CO2 incubator. The following day, DC cells were counted and plated in a 96 well round bottom microplate at a concentration of 30,000 viable cells per well. Lyophilized neoantigen peptide pools (15-mer peptides with 8-mer overlapping peptide sequences) were solubilized in 100% DMSO with a stock concentration of 20 mg/mL Neoantigen peptides pools were added to DCs for a final concentration of 10 μg/mL and rested for 2 hours at 37° C. and 5% CO2 incubator. CEF Peptide Pool “Plus” (Cellular Technologies, Ltd.) was utilized as a positive control (each viral peptide at a final concentration of 4 ug/ml) and DMSO at the same final concentration (0.05%) as the experimental peptides was utilized as a negative control. After 2 hours, DC cells were irradiated with 50 gray of ionizing radiation. Autologous CD3+ Pan-T cells isolated from human normal PBMCs were thawed using media. Following irradiation, autologous Pan-T cells were added to the irradiated DCs at 300,000 viable cells per well. Human IL-15 (Peprotech) was added to all wells at final concentration of 10 ng/ml. Plates were incubated at 37° C. and 5% CO2 incubator for a total of 12 days. Media was refreshed every 2-3 days with IL-15 (R&D System, 10 ng/mL final concentration) and IL-2 (R&D systems, 10 IU/mL final concentration).
(§4) On Day 11, cells were re-stimulated with identical experimental peptide pools or controls, at same concentration as peptide stimulation on Day 1. Protein Inhibitor Cocktail (eBioscience) was added to every well and plate was incubated overnight for 14-16 hours at 37° C. and 5% CO2 incubator. On Day 12, cells were stained for surface and intracellular flow cytometry analysis. The cells were washed with PBS and stained with Live/Dead Fixable Aqua Dead Cell stain (Thermo-Fisher). Following the live/dead stain, cells were blocked using Biotin-Free Fc Receptor Blocker (Accurate Chemical & Scientific Corp). Extracellular cellular flow panel (1 μL/antibody per well in 50 μL) consisted of CD3 PerCP-Cy5.5 (Biolegend), CD4 BV421 (Biolegend), and CD8 APC-Cy7 (Biolegend). After extracellular staining, cells were fixed and permeabilized using Foxp3/Transcription Factor Staining Buffer Set (eBioscience) and stained for intracellular proteins (1:50 dilution) using TNFα FITC (R&D Systems) and IFNγ BV785 (Biolegend). Cells were washed and resuspended in stain buffer, analyzed, and recorded in a BD Celesta flow cytometer.
(§5) Flow cytometry analysis was conducted on FlowJo v10.6 software. Cells were gated on live, singlet, CD3+, CD4+ and CD8+ T cells. The CD8+ and CD4+ T cells were analyzed for TNFα and IFNγ expression. […]

[2] = tested on: CD4+ T cells; assay: Exogenous autologous healthy donor restimulation assay, TNFα and IFNγ production by CD4+ T cells; type: cell-based, human; set-up: Frequency (TNFα+ IFNγ+ CD4 T cells): unit not given here; settings: donor independent, peptide pool 10 μg/mL, healthy donors; for Fold change (CD4+) vs. DMSO: maximum CD4+ T-cell response (TNFα and IFNγ); for Frequency (TNFα+ IFNγ+ CD4 T cells): maximum CD4+ T-cell response
Description: as §1, §2, §3, §4, §5

| Sequence | Fold change (CD8+) vs. DMSO [1] | Frequency (TNFα+ IFNγ+ CD8 T cells) [1] | Immunogenic (yes/no) [1] | Fold change (CD4+) vs. DMSO [2] | Frequency (TNFα+ IFNγ+ CD4 T cells) [2] |
| --- | --- | --- | --- | --- | --- |
| GEPGEDAGIGRPEEREREEEMADQ [AS135, alternative splicing, ZBP1] | 2.68 | 0.092 | No | 3.73 | 0.03 |
| GEVKWSVGSRTSLLL [FUS38, gene fusion CD79B-> GH1] | 23.41 | 0.18 | Yes | 4.06 | 0.007 |
| GFFETEMAVPFFSRKIRKVRRAIMKWTFCCYFY [AS118, alternative splicing, IARS] | 106.428 | 1.01 | Yes | 7.692 | 0.15 |
| GGPPFVGPLRGPRAQPSLSGLCGRRTGSRDTIKIPGQT [FUS42, gene fusion RBM42-> ETV2] | 14.72 | 0.027 | Yes | 9.54 | 0.11 |
| GKSTPPRKEIFDDASP [FUS11, gene fusion GAB1-> SMARCA5] | 7.36 | 0.013 | Yes | 11.4 | 0.008 |
| GNVLVRYVSLYVYYILLN [AS97, alternative splicing, ANKRD28] | 13446.33 | 23.8 | Yes | 96.12 | 0.57 |
| GRAGQGGGMISVSQEFIK [FUS7, gene fusion FAM98A-> LOC105374454] | 3.04 | 0.093 | Yes | 17.18 | 0.21 |
| GTTRLLSGEDFS [AS111, alternative splicing, CD55] | 1.16 | 0.012 | Yes | 16.71 | 0.06 |
| IDPSSPLHTYYERITKGRNPERRYMKPERISPGHEAMEKNLEDNL [AS129, alternative splicing, TET1] | 19.08 | 0.27 | Yes | 9.79 | 0.022 |
| IEKSISARITEQ [FUS36, gene fusion TNFRSF17-> SNX29] | 8.7 | 0.013 | Yes | 4.69 | 0.008 |
| IENEGGQVRSRPAPS [AS56, alternative splicing, ADGRE5] | 5 | 0.069 | Yes | 3.71 | 0.019 |
| IIMALAILDLFAVLKIEAHKQLLLKSFCYGAGK [AS113, alternative splicing, CLCC1] | 5.07 | 0.38 | Yes | 5.7 | 0.009 |
| ILAQKKKDELSS [AS93, alternative splicing, TJP1] | 1.44 | 0.014 | Yes | 9.9 | 0.015 |
| IMLIGNKSNCQKQLLRDMKILNEFYHGLILTLQLS [AS126, alternative splicing, RAB2B] | 161.72 | 0.49 | Yes | 6.861 | 0.04 |
| ISKRLKSRRRSGWQLNRAGNRGLSPGLGLFPRGCCRWGGAYTRLPSANQT [FUS20, gene fusion PTGES2-> SLC25A25-AS1] | 511.064 | 4.85 | Yes | 11.664 | 0.068 |
| KKEDVNFQVKQLIH [AS96, alternative splicing, ANKRD28] | 7.34 | 0.15 | Yes | 5.47 | 0.027 |
| KLLYEVSQKMVL [AS50, alternative splicing, PDZRN4] | 3.032 | 0.038 | Yes | 8.29 | 0.041 |
| KRYGCVFQVSIRHLSFPVTDILP [AS77, alternative splicing, TRAF3] | 369.64 | 1.12 | Yes | 7.547 | 0.046 |
| LARQISFKSLI [FUS14, gene fusion UBE2J1-> GABRR2] | 3.27 | 0.005 | Yes | 256.93 | 0.19 |
| LDPPHDEKALACPQWTLLWIFWTAKAL [AS95, alternative splicing, WDR64] | 1.58 | 0.13 | Yes | 19.58 | 0.014 |
| LDQCVETLCSLSKSD [FUS44, gene fusion ZGPAT-> LIME1] | 4.82 | 0.097 | Yes | 4.8 | 0.024 |
| LEDKELGRISVCPWTEGLEKMEKTLLCSSSG [AS88, alternative splicing, CADPS2] | 4.55 | 0.025 | Yes | 79.18 | 0.12 |
| LGRLEEAKSFETEEN [AS121, alternative splicing, OGT] | 194.72 | 0.59 | Yes | 1.41 | 0.02 |
| LGRLEEAKVPLKMLLF [AS122, alternative splicing, OGT] | 3.63 | 0.044 | Yes | 13.71 | 0.048 |
| LLPPGQESAIIGPPGMQ [FUS45, gene fusion IFNAR2-> IL10RB] | 88.8 | 0.43 | Yes | 10.56 | 0.1 |

Source: US20210261636A1, “NEOANTIGENS EXPRESSED IN MULTIPLE MYELOMA AND THEIR USES” (Janssen Biotech, Inc., priority 2020, published 2021)
